We go through 8 compounds from US8202868B2, “4-piperazinyl-pyrimidine compounds suitable for treating disorders that respond to modulation of the dopamine D3 receptor” (Abbott GmbH & Co. KG, priority 2004, dated 2012).

The term Ki denotes a measure of affinity in units of concentration, obtained from inhibition or displacement.

Assay [1] has as its target T1, human dopamine D3 receptors (Homo sapiens, UniProt P35462).
T1 construct: expressed in transfected cells; host or cells: HEK-293
As to the kind of experiment: Dopamine D3 receptor binding, [125I]-iodosulpride displacement. The following applies: for Ki: membranes of HEK-293 cells, 0.1 nM [125I]-iodosulpride, 25° C., 60 minutes; for Ki(D2)/Ki(D3): selectivity ratio of receptor binding constants. Here is the method: (§1) The substance to be tested was either dissolved in methanol/Chremophor® (BASF-AG) or in dimethyl sulfoxide and then diluted with water to the desired concentration.
(§2) Each assay mixture was run in triplicate.
The incubation buffer contained 50 mM tris, 120 mM NaCl, 5 mM KCl, 2 mM CaCl2, 2 mM MgCl2 and 0.1% bovine serum albumin, 10 μM quinolone and 0.1% ascorbic acid (prepared fresh daily). The buffer was adjusted to pH 7.4 with HCl.
(§3) After having been incubated at 25° C. for 60 minutes, the assay mixtures were filtered through a Whatman GF/B glass fiber filter under vacuum using a cell collecting device. The filters were transferred to scintillation viols using a filter transfer system. After 4 ml of Ultima Gold® (Packard) have been added, the samples were shaken for one hour and the radioactivity was then counted in a Beta-Counter (Packard, Tricarb 2000 or 2200CA). The cpm values were converted into dpm using a standard quench series and the program belonging to the instrument.
(§4) The inhibition curves were analyzed by means of iterative nonlinear regression analysis using the Statistical Analysis System (SAS) which is similar to the “LIGAND” program described by Munson and Rodbard.

Assay [2] deals with T2, human dopamine D2L receptors (long isoform) (Homo sapiens, UniProt P14416).
T2 construct: expressed in transfected cells; host or cells: HEK-293
T2 sequence (P14416 whole entry, canonical isoform): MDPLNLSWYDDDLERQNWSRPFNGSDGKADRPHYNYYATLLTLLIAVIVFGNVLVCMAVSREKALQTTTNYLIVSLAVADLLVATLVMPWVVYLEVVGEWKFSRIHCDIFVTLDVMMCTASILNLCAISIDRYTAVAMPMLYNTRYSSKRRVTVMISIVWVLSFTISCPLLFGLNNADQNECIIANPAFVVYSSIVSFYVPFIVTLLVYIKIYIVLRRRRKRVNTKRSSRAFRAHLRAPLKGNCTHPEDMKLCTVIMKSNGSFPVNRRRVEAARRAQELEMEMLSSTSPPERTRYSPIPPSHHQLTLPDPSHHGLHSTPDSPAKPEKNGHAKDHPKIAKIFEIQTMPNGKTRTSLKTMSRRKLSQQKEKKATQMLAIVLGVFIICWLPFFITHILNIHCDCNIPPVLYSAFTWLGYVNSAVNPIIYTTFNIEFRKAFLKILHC
As to the kind of experiment: Dopamine D2L receptor binding, [125I] iodospiperone displacement. How it is done:
as §1, §2
The incubation buffer contained 50 mM tris, 120 mM NaCl, 5 mM KCl, 2 mM CaCl2, 2 mM MgCl2 and 0.1% bovine serum albumin. The buffer was adjusted to pH 7.4 with HCl.
as §3, §4

Where [3] appears, read: membranes of HEK-293 cells, 0.01 nM [125I] iodospiperone, 25° C., 60 minutes, read-out: Ki(D2).

The structures appear in SMILES notation. Like-named read-outs stand apart in the source and are kept apart here.

T1 sequence (P35462 whole entry): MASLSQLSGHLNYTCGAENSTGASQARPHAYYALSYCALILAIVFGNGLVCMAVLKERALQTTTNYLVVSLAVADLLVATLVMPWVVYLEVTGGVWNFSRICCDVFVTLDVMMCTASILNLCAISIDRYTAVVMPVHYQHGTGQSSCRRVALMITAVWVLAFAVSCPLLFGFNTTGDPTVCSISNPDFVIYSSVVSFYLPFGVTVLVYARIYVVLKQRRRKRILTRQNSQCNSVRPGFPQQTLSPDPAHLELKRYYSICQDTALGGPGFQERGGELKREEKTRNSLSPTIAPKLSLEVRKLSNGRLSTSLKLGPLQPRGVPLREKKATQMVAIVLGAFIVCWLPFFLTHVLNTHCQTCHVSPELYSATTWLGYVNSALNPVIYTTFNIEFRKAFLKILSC

In the case of `CC(C)(C)c1nc(C2CCC2)cc(N2CCN(CCCOc3ccnc(O)n3)CC2)n1` [Example 24, 4-{3-[4-(2-tert-Butyl-6-cyclobutyl-pyrimidin-4-yl)-piperazin-1-yl]-propoxy}-pyrimidin-2-ol], in assay [1], the Ki is 1.2 nM and the “Ki(D2)/Ki(D3)” value is on record as 93. The Ki in assay [2] (setting [3]) is 112 nM.
The matching figures for `Cc1nnc(SCCCN2CCN(c3cc(C4CCC4)nc(C(C)(C)C)n3)CC2)n1C.O=C(O)/C=C/C(=O)O` [Example 43, 2-tert-Butyl-4-{4-[3-(4-methyl-5-methyl-4H-[1,2,4]triazol-3-ylsulfanyl)-propyl]-piperazin-1-yl}-6-cyclobutyl-pyrimidine fumarate]: 1.5 nM, 210 and 305 nM.
For `CC(C)(C)c1nc(C2CC2)cc(N2CCN(CCCOc3nccc(O)n3)CC2)n1` [Example 37, 2-{3-[4-(2-tert-Butyl-6-cyclopropyl-pyrimidin-4-yl)-piperazin-1-yl]-propoxy}-pyrimidin-4-ol] the same measures were 7.1 nM, 51 and 359 nM.
For `Cn1cnnc1SCCCN1CCN(c2cc(C3CCC3)nc(C(C)(C)C)n2)CC1` [Example 41, 2-tert-Butyl-4-{4-[3-(4-methyl-4H-[1,2,4]triazol-3-ylsulfanyl)-propyl]-piperazin-1-yl}-6-cyclobutylpyrimidine] the same measures were 1.3 nM, 314 and 405 nM.
`CC(C)(C)c1nc(C2CCC2)cc(N2CCN(CCCOc3ncccn3)CC2)n1.Cl` [Example 27, 2-tert-Butyl-4-cyclobutyl-6-{4-[3-(pyrimidin-2-yloxy)-propyl]-piperazin-1-yl}-pyrimidine hydrochloride]: in assay [1], the Ki turned out to be 2.1 nM and the “Ki(D2)/Ki(D3)” value is on record as 107. Moreover, in assay [2] (setting [3]), the Ki worked out at 222 nM.
For `Cn1c(OCCCN2CCN(c3cc(C4CCC4)nc(C(C)(C)C)n3)CC2)nnc1-c1ccccc1` [Example 64, 2-tert-Butyl-4-cyclobutyl-6-{4-[3-(4-methyl-5-phenyl-4H-[1,2,4]triazol-3-yloxy)-propyl]-piperazin-1-yl}-pyrimidine] the same measures were 1.6 nM, 92 and 147 nM.
The matching figures for `C[C@@H](COc1nccc(O)n1)CN1CCN(c2cc(C3CCC3)nc(C(C)(C)C)n2)CC1` [Example 52]: 11.2 nM, 82 and 926 nM.
For `CC(C)(C)c1nc(C2CCC2)cc(N2CCN(CCCSc3nncs3)CC2)n1` [Example 1, 2-tert-Butyl-4-cyclobutyl-6-{4-[3-([1,3,4]thiadiazol-2-ylsulfanyl)-pronyl]-piperazin-1-yl}-pyrimidine], the inhibition constant (Ki) came to 0.9 nM in assay [1] and 49 nM in assay [2]. Also, in assay [1], the “Ki(D2)/Ki(D3)” value was found to be 54.
